Several values for one entry are separate records, joined by “and”; a condition that tells them apart may be missing. Equal values may be shown once. After the bases stand the sugars from the 5' end (letter, count) and the backbone: PS all phosphorothioate, else s phosphorothioate and o phosphodiester by linkage. Methylation of C is not given here. e = 2'-O-(2-methoxyethyl) (MOE); k = constrained ethyl (cEt); d = 2'-deoxy (DNA)

For 90 sequences, target mRNA inhibition results are on record in the OligoGym collection.

In the first data set the target is IRF4. The settings on record: ASO, MM.1R, 0.0625 µM.
Turning to TGGATTGCTGATGTGT (sugars k3 d10 k3, PS), the target mRNA inhibition was determined as 45%.

As to GGCGAGTTGGCACAAT (sugars k3 d10 k3, PS), the target mRNA inhibition is -13%.

The same data set, now with this note: ASO, MM.1R, 0.074 µM.
For ATAGCTGTTTATTTCC (sugars k4 d8 k4, PS), the target mRNA inhibition amounted to 7%.

Still in this data set, the particulars now being: ASO, MM.1R, 0.222 µM.
Regarding ATAGCTGTTTATTTCC (sugars k4 d8 k4, PS), the target mRNA inhibition turned out to be 6%.

The data set is the same for the next values; noted with them: ASO, MM.1R, 0.25 µM.
Regarding TGGATTGCTGATGTGT (sugars k3 d10 k3, PS), the target mRNA inhibition was found to be 58%.

Regarding GGCGAGTTGGCACAAT (sugars k3 d10 k3, PS), the target mRNA inhibition stood at 3%.

The data set is the same for the next values; noted with them: ASO, MM.1R, 0.666 µM.
With ATAGCTGTTTATTTCC (sugars k4 d8 k4, PS), the target mRNA inhibition stood at 11%.

Still in this data set, the particulars now being: ASO, MM.1R, 1 µM.
Consider “AGTGTCTAAAGTCCCA (sugars kkdddddddddekeke, PS)”, for which the target mRNA inhibition is 18% and 19%.

For the sequence GCACAGGCGCGGACGC (sugars k3 d10 k3, PS), the target mRNA inhibition was -6%.

GGACGCACGGAGAGGG (sugars k3 d10 k3, PS): the target mRNA inhibition worked out at 15%.

Consider ATTTACACCGTTGCTC (sugars k3 d10 k3, PS), for which the target mRNA inhibition turned out to be 13%.

With GAGCATCACTATTAAG (sugars k3 d10 k3, PS), the target mRNA inhibition was 14%.

On to ACCGACTCTTTTTTTA (sugars k3 d10 k3, PS), for which the target mRNA inhibition was -2%.

Turning to AGAGGTGCCTTCTTTA (sugars k3 d10 k3, PS), the target mRNA inhibition was 18%.

For CGCCAGCGGGTGAGCA (sugars k3 d10 k3, PS), the target mRNA inhibition is 19%.

On to AAAGAGTGGTACACCT (sugars k3 d10 k3, PS), for which the target mRNA inhibition came out at 10%.

As for CCTATGCTGAACCCCA (sugars k3 d10 k3, PS), the target mRNA inhibition was -12%.

For TAGATTCTCCCTGCAC (sugars k3 d10 k3, PS), the target mRNA inhibition is 18%.

As to ACAGAGAGTCCGACGC (sugars k3 d10 k3, PS), the target mRNA inhibition is -8%.

As for “AAGTGTCTAAAGTCCC (sugars kdddddddddkekeke, PS)”, the target mRNA inhibition was 4% and 5%.

As for ACAGCCGAAGCATTTT (sugars k3 d10 k3, PS), the target mRNA inhibition stood at 8%.

Consider TGGATTGCTGATGTGT (sugars k3 d10 k3, PS), for which the target mRNA inhibition is 71% and 75%.

In the case of “ACACTTTTAGAGAGGA (sugars e1 k2 d9 k2 e2, PS)”, the target mRNA inhibition was 29%.

Turning to CGCTTGTGGATATACA (sugars k3 d10 k3, PS), the target mRNA inhibition came to 0%.

Consider “GATTATATACTGGTTG (sugars kkdddddddddekeke, PS)”, for which the target mRNA inhibition is 46%.

On to “TTATGTTAGCCAATTC (sugars kkdddddddddekeke, PS)”, for which the target mRNA inhibition is 9% and 8%.

As to “AATGTGTATTACTCTT (sugars kddddddddddkekek, PS)”, the target mRNA inhibition was 24% and 29%.

In the case of GGCGAGTTGGCACAAT (sugars k3 d10 k3, PS), the target mRNA inhibition was 49% and 30%.

In the case of AGAACTTGCTAAGTCT (sugars k3 d10 k3, PS), the target mRNA inhibition is -34%.

Consider GAATAGGACCCCTATC (sugars k3 d10 k3, PS), for which the target mRNA inhibition is -3%.

With “CTTGATAAAGGCTGAA (sugars kkdddddddddkdkdk, PS)”, the target mRNA inhibition is 1%.

As for “AGCTTGATAAAGGCTG (sugars e1 k2 d9 k2 e2, PS)”, the target mRNA inhibition was found to be 1%.

TGGATTGATGTGATAG (sugars k3 d10 k3, PS): the target mRNA inhibition is 48%.

“GACACTTTTAGAGAGG (sugars e1 k2 d9 k2 e2, PS)”: the target mRNA inhibition amounted to 24%.

Regarding “ACTGCTTGAGGTTTTC (sugars e1 k2 d9 k2 e2, PS)”, the target mRNA inhibition turned out to be 46%.

On to “AGTGTCTAAAGTCCCA (sugars kdddddddddkekeke, PS)”, for which the target mRNA inhibition is -12% and 12%.

Consider “GTAGTATGAGAAACGG (sugars kkkddddddddkekek, PS)”, for which the target mRNA inhibition stood at 43%.

GAAACGAGTTGACACA (sugars k3 d10 k3, PS): the target mRNA inhibition was found to be 0%.

Take “ATGTGATAGCTGAGCT (sugars kkdddddddddkekek, PS)”: the target mRNA inhibition was 24%.

The same data set, now with this note: ASO, MM.1R, 2 µM.
ATAGCTGTTTATTTCC (sugars k4 d8 k4, PS): the target mRNA inhibition worked out at 32%.

The same data set, now with this note: ASO, MM.1R, 4 µM.
For TGGATTGCTGATGTGT (sugars k3 d10 k3, PS), the target mRNA inhibition was 90%.

As to GGCGAGTTGGCACAAT (sugars k3 d10 k3, PS), the target mRNA inhibition was determined as 60%.

The same data set, now with this note: ASO, SK-MEL-28, 0.185 µM.
As to ATAGCTGTTTATTTCC (sugars k4 d8 k4, PS), the target mRNA inhibition is -2% and -10% and -3%.

The data set is the same for the next values; noted with them: ASO, SK-MEL-28, 4 µM.
For the sequence GCGGAGGACCTCGCCT (sugars k3 d10 k3, PS), the target mRNA inhibition worked out at 8%.

TGAAATGTCAAACCCT (sugars k3 d10 k3, PS): the target mRNA inhibition came out at 54%.

For TACATCACTGCAGTTC (sugars k3 d10 k3, PS), the target mRNA inhibition was 68%.

With CCTGAGACAGACTTCC (sugars k3 d10 k3, PS), the target mRNA inhibition came out at 55%.

As for GTAACTCAGGCACCAC (sugars k3 d10 k3, PS), the target mRNA inhibition worked out at 47%.

For the sequence GGAGAATTTGGGCTGG (sugars k3 d10 k3, PS), the target mRNA inhibition came to 75%.

Take ATAGCTGTTTATTTCC (sugars k4 d8 k4, PS): the target mRNA inhibition turned out to be 59%.

With GGCCTTGCCAGTGGTG (sugars k3 d10 k3, PS), the target mRNA inhibition was -12%.

For CCGCGCTCATGCCGAA (sugars k3 d10 k3, PS), the target mRNA inhibition turned out to be 45%.

For the sequence CTTCACTACCTGCAGC (sugars k3 d10 k3, PS), the target mRNA inhibition was determined as 22%.

For AGGTAGTAGACCACAG (sugars k3 d10 k3, PS), the target mRNA inhibition was 59%.

For ACAAGCATAAAAGGTT (sugars k3 d10 k3, PS), the target mRNA inhibition turned out to be 4%.

Consider GGTGGCTCAGCAGCTT (sugars k3 d10 k3, PS), for which the target mRNA inhibition amounted to 37%.

Consider CACCCACACAAGTCTT (sugars k4 d8 k4, PS), for which the target mRNA inhibition amounted to 14%.

Turning to AGGAAACCGCTGGCAG (sugars k3 d10 k3, PS), the target mRNA inhibition came to 56%.

On to TGACATCATTTAGGTA (sugars k3 d10 k3, PS), for which the target mRNA inhibition stood at 54%.

As to ATAAAGGACCCCGCCA (sugars k3 d10 k3, PS), the target mRNA inhibition came to 18%.

As to ATCTGAATTGTTACTA (sugars k3 d10 k3, PS), the target mRNA inhibition came to 12%.

For the sequence CCAAGGATAACCTGAA (sugars k3 d10 k3, PS), the target mRNA inhibition is 44%.

In the case of CGGAACTTTCCTTTAA (sugars k3 d10 k3, PS), the target mRNA inhibition is 37%.

With GCAGCTTCTCAATGTT (sugars k3 d10 k3, PS), the target mRNA inhibition stood at 43%.

As for CCGCAGAGAGCTAGCA (sugars k3 d10 k3, PS), the target mRNA inhibition is -6%.

Take GCACAGCCGTCCGCCT (sugars k3 d10 k3, PS): the target mRNA inhibition worked out at 16%.

With AAGCATCCTTTCCTAC (sugars k3 d10 k3, PS), the target mRNA inhibition worked out at 35%.

In the case of AGTGATGTCAGGTTTT (sugars k3 d10 k3, PS), the target mRNA inhibition stood at 72%.

In the case of GTCTTCCACAAGAACT (sugars k3 d10 k3, PS), the target mRNA inhibition worked out at 47%.

For CATGAGGGTGACACAC (sugars k3 d10 k3, PS), the target mRNA inhibition was determined as 47%.

As to CCTGTGGTGGAACTCT (sugars k3 d10 k3, PS), the target mRNA inhibition worked out at 27%.

With GGCCTCCCGCTTGTGG (sugars k3 d10 k3, PS), the target mRNA inhibition was -18%.

Regarding CCTAATCTACAACAAA (sugars k3 d10 k3, PS), the target mRNA inhibition was determined as 15%.

As for AAGAAGCACTGGCATT (sugars k3 d10 k3, PS), the target mRNA inhibition is 22%.

For TGCAAGTATGTAGCAA (sugars k3 d10 k3, PS), the target mRNA inhibition is 3%.

On to AGCTGTATTTATGCCC (sugars k3 d10 k3, PS), for which the target mRNA inhibition worked out at 58%.

As for CCGGACCCCGGAGCAG (sugars k3 d10 k3, PS), the target mRNA inhibition was -24%.

Regarding ATACATTCACACTGCC (sugars k3 d10 k3, PS), the target mRNA inhibition was 45%.

Take ACCCAGTGGTAGGTAG (sugars k3 d10 k3, PS): the target mRNA inhibition was found to be 30%.

Consider GAAACAGAGACGCGGT (sugars k3 d10 k3, PS), for which the target mRNA inhibition turned out to be 1%.

In the case of GGCTTTGTGTTTAAGT (sugars k3 d10 k3, PS), the target mRNA inhibition was 23%.

Turning to GAAGGATGATCAGCTT (sugars k3 d10 k3, PS), the target mRNA inhibition stood at 26%.

In the case of GAGCAAATTGAGACCA (sugars k3 d10 k3, PS), the target mRNA inhibition was determined as 55%.

TATCCATTAGAAAAGC (sugars k3 d10 k3, PS): the target mRNA inhibition was 63%.

On to GCTCAGAATGAAGTTA (sugars k3 d10 k3, PS), for which the target mRNA inhibition turned out to be 48%.

In the case of GATATCAAAGATCTCC (sugars k3 d10 k3, PS), the target mRNA inhibition was 57%.

Regarding GAATTTCAGGAGCTAG (sugars k3 d10 k3, PS), the target mRNA inhibition turned out to be 61%.

As to TTGTTAACAATGTATC (sugars k3 d10 k3, PS), the target mRNA inhibition was 47%.

On to GAAATATACCAGCTCA (sugars k3 d10 k3, PS), for which the target mRNA inhibition came out at 61%.

Turning to GTCTTTGGGATTCTAT (sugars k3 d10 k3, PS), the target mRNA inhibition turned out to be 65%.

In the case of GTTCGCTGAATTGTCA (sugars k3 d10 k3, PS), the target mRNA inhibition turned out to be 37%.

On to TTTATGCCCTCGCTCA (sugars k3 d10 k3, PS), for which the target mRNA inhibition turned out to be 24%.

With GAGCGGCCGTGGTGAG (sugars k3 d10 k3, PS), the target mRNA inhibition was 41%.

Regarding ACACACCAGGTTAAAC (sugars k3 d10 k3, PS), the target mRNA inhibition was determined as 12%.

Regarding ATACATCACTGCAGTT (sugars k3 d10 k3, PS), the target mRNA inhibition was determined as 36%.

GAGCAGAACGAGGTAA (sugars k3 d10 k3, PS): the target mRNA inhibition amounted to 55%.

For the sequence GATGCTCAGAATGAAG (sugars k3 d10 k3, PS), the target mRNA inhibition came to 43%.

As to GCATGACAGGGCGAGG (sugars k3 d10 k3, PS), the target mRNA inhibition was 43%.

For ACCCATTTAATCTGTC (sugars k3 d10 k3, PS), the target mRNA inhibition came out at 57%.

Consider ACATAACTCAGGCAAG (sugars k3 d10 k3, PS), for which the target mRNA inhibition is 1%.

For the sequence CGACAACTTTCCTGAA (sugars k3 d10 k3, PS), the target mRNA inhibition was 21%.

Still in this data set, the particulars now being: ASO, SK-MEL-28, 15 µM.
As to ATAGCTGTTTATTTCC (sugars k4 d8 k4, PS), the target mRNA inhibition was 81% and 79% and 91%.
